In ChEMBL document CHEMBL1125973, “Tricyclic quinoxalines as ligands for the strychnine-insensitive glycine site” (Bioorg Med Chem Lett, 1991):

How the values were obtained:
[1] = target: Glutamate receptor ionotropic AMPA (Homo sapiens, UniProt P42261+P42262+P42263+P48058); assay: Compound was evaluated for its binding affinity towards Ionotropic glutamate receptor AMPA in presence of [3H]- AMPA; assay type: protein-complex assay
[2] = target: Glutamate receptor ionotropic, NMDA 1 (Rattus norvegicus, UniProt P35439); assay: Compound was evaluated for its binding affinity towards strychnine - insensitive glycine site of NMDA receptor in presence of [3H]- Gly

Row | IC50 [1] | IC50 [2] | SMILES
1 | 7 µM | 6 µM | Oc1nc2cc(Cl)c(Cl)cc2n2ccnc12
2 | > 100 µM | 77 µM | Oc1nc2cc(Cl)c(Cl)cc2n2nnnc12
3 |  | > 100 µM | O=c1[nH]c2ccccc2n2nnnc12
4 | 36 µM | 17 µM | Cn1c(=O)c(=O)[nH]c2cc(Cl)c(Cl)cc21
5 | 8 µM | 7 µM | Oc1nc2cc(Cl)c(Cl)cc2n2cnnc12
6 | 27 µM | 4 µM | Oc1nc2cc(Cl)c(Cl)cc2nc1O [2,3-DIHYDROXY-6,7-DICHLOROQUINOXALINE]
7 |  | > 100 µM | O=c1[nH]c2ccccc2n2ccnc12
8 |  | > 100 µM | CCCCn1c(=O)c(=O)[nH]c2cc(Cl)c(Cl)cc21
9 | 21 µM | 96 µM | CCn1c(=O)c(=O)[nH]c2cc(Cl)c(Cl)cc21
